{"source": "patent US20150050663A1", "about": "“Optimal Gonadotropin Dosage” (Oslo Universitetssykehus HF, priority 2012, published 2015)", "system": "peripheral blood monocytes", "experiment": "uptake of fluorochrome-conjugated gonadotropins by blood-derived leukocytes (FACS)", "format": "cell-based, human", "settings": "FIG. 1B", "protocol": "Blood-derived monocytes are enriched by density gradient centrifugation. […] Cells are labelled with fluorochrome-conjugated monocyte marker (e.g. anti-CD14-PerCP antibody, as described above) and analyzed with multi-colour flow cytometry (FACS).\nUnspecific binding (background) is estimated as MFI for cells incubated on ice\nCells were analyzed with flow cytometry (FACS) with simultaneous detection of multiple cell lineage markers."}
{"substance": "cytochalasin", "values": [{"measurement": "effect on gonadotropin binding to monocytes", "result": "inhibited"}]}
